How the values were obtained:
[1] = test system: rats; assay: Comparison with morphine, behavioural nociception tests and behaviour observation; type: in vivo, rat; settings: i.p.
Description: (§1) In vivo behavioural anti-nociception tests were carried out in rats (Wister, male). Unless otherwise stated, compounds were administered by intra-peritoneal (i.p.) injection. For most assays, the Tail Flick and the Hot Plate tests were used.
The analgesic potential of KTP-NH2 was also verified by comparison with well-known, widely-used analgesic molecules: ibuprofen and morphine.
From FIG. 12 it is possible to observe that the efficacy of 3 mg/100 g of KTP-NH2 is similar to that observed with 0.5 mg/100 g dose of morphine.

[2] = Metabolic stability in human liver microsomal preparation; type: in vitro ADME; settings: liver microsomes; 1-hour incubation with human liver microsomal preparation; read-out: compound remained
From the text: Many compounds can never become a drug because they are rapidly metabolized in the liver. It is important to confirm that metabolic stability is adequate to the desired distribution of compound throughout the body.

[3] = Plasma serum stability of analogues; type: in vitro ADME; settings: Human Serum; test concentration 400 uM; 1-hour incubation; read-out: Mean Parent Remaining (%)
Description: These analogues were tested for plasma serum stability, in comparison with KTP-NH2.

[4] = test system: rats (Wister, male); assay: Increasing-temperature Hot Plate test; type: in vivo, rat
Description: as §1
The hot-plate test (Eddy N. B and Leimbach D. 1953. Synthetic analgesics II. Dithienylbutenyl and dithienylbutylamines J. Pharmacol. Exp. Ther. 45: 339) evaluates a supraspinally integrated response in the form of thermal pain reflexes due to footpad contact with a heated surface. During the experiments, the animal is confined in a removable clear acrylic compartment where the latency time to the first hind paw or/and jumping responses are measured. […] The response is the licking of the hindpaw, and the corresponding plate temperature represents the recorded nociceptive end-point. The advantage of Increasing-Temperature Hot-Plate test over the standard constant-temperature hot-plate test is the higher sensitivity and the lack of influences of pre-exposure to the hot-plate before testing. Animal reaction temperature is a measurement of animal resistance to pain and is used to measure efficacy of analgesics.

[5] = test system: rats; assay: Formalin test (paw jerks); type: in vivo, rat; settings: acute and tonic-chronic phases; i.p. 10 min before 5% formalin s.c.
From the text: The formalin test was introduced as a model of tonic pain in 1977 (Dubuisson D., Dennis S. G. 1977. The formalin test: a quantitative study of the analgesic effect of morphine, meperidine and brain stem stimulation in rats and cats. Pain; 4:74-161). In rats, formalin generates an initial phase of activity (phase 1, acute), a quiescent interphase, and a second phase of activity (phase 2, tonic/chronic), and this is seen with spontaneous behaviors, firing of afferent neurons, and activity in dorsal horn neurons. Both active phases involve ongoing peripheral afferent neural activity; inflammation contributes to phase 2 activity and the interphase results from active inhibition. Within the spinal cord, formalin increases c-fos expression in neurons and causes activation of microglia, and these may contribute more prominently to longer term changes.
We performed the formalin test due to its validity as a model to study central sensitization events at the spinal level after peripheral inflammatory states. The standard two types of nociception were analyzed; the short-lasting nociception caused by a direct effect on nociceptors followed by a long-lasting nociception due to inflammation. KTP-NH2 was administered i.p. 10 min previous to formalin injection. […] The paw jerks were videotaped and measured both in the acute and in the tonic-chronic phases. […]

[6] = test system: rats; assay: Rota-rod test (motor ability); type: in vivo, rat; settings: 3.23 mg/100 g of body mass
Description: To evaluate the motor ability of animals after being injected with the drug (3.23 mg/100 g of body mass), the Rota-rod test was used. Briefly, the animal is placed on a wheel and run in balanced position; if balance is lost, the animal falls.

[7] = test system: rats (Wister, male); assay: Histological alterations in liver, kidney and spleen; type: in vivo, rat; settings: hematoxylin/eosin; 3.23 mg/100 g i.p. seven days
Description: The toxicological studies were carried out with rats (Wister, male) injected i.p. once a day with 3.23 mg/100 g body mass during seven days.
For investigation of histological alterations in liver, kidney and spleen hematoxylin/eosin-stained sections of fixed tissue were used.

[8] = Plasma stability; type: in vitro ADME, human; settings: after 1 h incubation
From the text: Drugs are exposed in plasma to enzymatic processes (proteinases, esterases), they can undergo intramolecular rearrangement or bind irreversibly (covalently) to proteins. Compounds which are not stable in plasma have inherent liability as drug candidates, as they are less capable to reach a sufficient concentration at their site of pharmacological activity.

[9] = test system: monoarthritis rats; assay: CFA-induced monoarthritis, Hargreaves and Tail Flick tests; type: in vivo, rat
From the text: The subcutaneous intraplantar injection of complete Freund's adjuvant (CFA) into the local area of an animal can cause severe inflammatory pain around the injected area. This CFA-induced inflammatory pain has been widely used as a kind of pain model in the field of pain research since it was reported. Inflammatory pain was induced by an injection of complete Freund's adjuvant into the right hindpaw of the rats (S. H. Butler, F. Godefroy, J. M. Besson and J. Weilfugazza. 1992. A limited arthritic model for chronic pain studies in the rat. Pain, 48: 73-81). The paw withdrawal latency was used to assess the inflammatory pain according to the method of Hargreaves et al. (Hargreaves K, Dubner R, Brown F, Flores C, and Joris J. 1988. A new and sensitive method for measuring thermal nociception in cutaneous hyperalgesia. Pain 32: 77-88, 1988). The CFA-injected area of the right paw was placed on a constant-intensity radiant heat source and the time of paw-withdrawal latency was measured by observing the animal's paw-withdrawal response after applying initial heat to the left or right paws. Additionally, the Tail Flick test was performed in order to assess the secondary hyperalgesia.

N=C(N)NCCC[C@H](NC(=O)[C@@H](N)Cc1ccc(O)cc1)C(N)=O [KTP-NH2, L-Tyr-L-Arg-NH2]
analgesic efficacy compared with morphine ([1]; 3 mg/100 g KTP-NH2 vs 0.5 mg/100 g morphine): similar | alterations in behavior (secondary effects) ([1]; rats): no such secondary effects were observed | remaining at 1 h [2]: 93% | remaining at 1 h, 400 uM [3]: 14% | analgesic effect compared with ibuprofen ([4]; Hot Plate, i.p.): more pronounced effect | duration of anti-nociceptive response ([4]; Hot Plate, i.p., rat): 30 min | smallest dose tested with statistical significance ([4]; Hot Plate, i.p., rat): 1.67 mg for 100 g of body mass | analgesic efficacy after oral administration ([4]; Hot Plate, oral, rat): slight delay of the onset of effect | effect in hot plate test ([4]; i.p., rat): clear anti-nociceptive response | number of paw-jerks [5]: reduced significantly | motor ability, loss of balance [6]: No loss of balance/equilibrium | histological alterations in kidney and spleen [7]: no histological modifications | histological alterations in liver [7]: no sign of hepatic necrosis | stability in human plasma [8]: 14-21% | analgesic effect in chronic inflammatory pain [9]: efficacy

From patent US20110082087A1, “COMPOUNDS FOR TREATING PAIN” (Edificio ICAT, priority 2008, published 2011)
